In general, EC50 refers to the concentration that produces a half-maximal response.

The text below walks through data of patent US20050209336A1, “EP2 receptor agonists” (priority 2003, published 2005).

Read-outs that look alike come from different tables or passages of the source.

The target of assay [1] is T1, human EP4 receptor (Homo sapiens, UniProt P35408).
T1 construct: expressed in transfected cells
The assay can be described thus: Radioligand ([3H]PGE2) competition displacement binding, human EP4 receptor membranes. As to conditions: [3H]PGE2 displacement, read-out: pKi EP4 (converted). As for the experimental part: Membranes were prepared from cells stably transfected with human EP receptor cDNA. In brief, cells were cultured to confluency, scraped from culture flasks, and centrifuged (800 g, 8 minutes, 4° C.). Cells were twice washed in ice cold homogenisation buffer containing 10 mMTris-HCl, 1 mM EDTA.2Na, 250 mM sucrose, 1 mM PMSF, 0.3 mM indomethacin, pH 7.4, homogenised and re-centrifuged as before. The supernatant was stored on ice and pellets re-homogenised and re-spun. Supernatants were pooled and centrifuged at 40000 g, 10 minutes, 4° C. Resultant membrane pellets were stored at −80° C. until use.
For assay, membranes expressing human EP4, EP3, EP2 or EP1 receptors were incubated in Millipore (MHVBN45) plates containing assay buffer, radiolabelled [^3H]PGE2 and 0.1 to 10 000 nM concentrations of compounds. Incubations were performed at suitable temperatures and for suitable times to allow equilibrium to be reached. Non-specific binding was determined in the presence of 10 uM PGE2. Bound and free radiolabel was separated by vacuum manifold filtration using appropriate wash buffers, and bound radiolabel was determined by scintillation counting. Constituents of each of the buffers are included in table 4 below.
The affinity or pKi of each compound for each receptor was calculated from the concentration causing 50% radioligand displacement (IC50) using the Cheng-Prusoff equation: [formula]
This approach follows that set out in Kenakin, T. P., Pharmacologic analysis of drug receptor interaction. Raven Press, New York, 2nd edition.

Assay [2] has as its system human myometrial smooth muscle. As to the kind of experiment: Human myometrial activity: inhibition of electrical field stimulation (EFS) induced contractions. Format: cell-based. The settings on record: for maximum inhibitory effect: inhibition of EFS-induced contractions / EC50: human myometrium strips; for effect on electrically-induced (EFS-evoked) contractions: human myometrium, 10^-6 to 10^-4 M (FIG. 6), 1x10^-7 to 1x10^-4 M; for EC50: inhibition of EFS-evoked response. The procedure:
The following describes an in vitro functional assay, using human myometrial smooth muscle, to determine the affinity of the test compounds at the EP2 receptor in human tissues.
Sections of human myometrium were prepared from samples of surgically removed uterus longitudinal myometrial muscle strips (2 mm wide by 10 mm long) were then cut and suspended between stainless steel hooks in organ chambers containing oxygenated (95% O2/5% CO2) Krebs solution at 37° C. The composition of the Krebs solution was as follows: NaCl (118.2 mM), KCl (4.69 mM), MgSO4.7H2O (1.18 mM), KH2PO4 (1.19 mM), glucose (11.1 mM), NaHCO3 (25.0 mM), CaCl2.6H2O (2.5 mM), indomethacin 3×10^−6M.
Tissues were placed under a tension equivalent to 25 mN and left overnight at room temperature. The following day the tissues were maintained at 37° C., washed and placed under a tension of 15 mN then allowed to equilibrate for a period of at least 30 minutes. Responses were recorded using isometric transducers coupled to an Apple Macintosh computer via a MacLab interface. After 60 minutes, the muscle sections of the human myometrium were stimulated electrically (15 ms pulse width, for 10 s every 100 s at 15V and 0.5-40 Hz) using parallel platinum wire electrodes and a Multistim D330 pulse stimulator. Upon electrical stimulation, the strips of human myometrial smooth muscle responded with a rapid contraction. Once the response to electrical stimulation had stabilised (stimulated responses differed by no more than 10%), the strips were exposed to increasing concentrations of test compounds (1×10^−7 to 1×10^−4M, incubated for at least 15 minutes at each concentration). At the end of the experiment, application of sodium nitroprusside (SNP, a nitric oxide donor that causes smooth muscle relaxation) (1×10^−4M) was used to produce a standard relaxatory response. To determine the affinity of the compounds, the concentration of test compound required to produce half-maximal effects (EC50) was calculated, as was the maximum response (calculated as a percentage of the standard response produced with SNP).

Assay [3] relates to IL-2 production by OKT3 activated T cells. As to the kind of experiment: Lymphocyte assay: IL-2 production by anti-CD3 (OKT3) stimulated T cells. Format: cell-based, human. The settings on record: Homo sapiens, T-cell, 24 h, inhibition of IL-2 production. From the text: (§1) Lymphocytes are mononuclear leukocytes, which participate in specific immune responses to foreign antigens and in the manifestation of auto-immune diseases. T lymphocytes produce IL-2, a key factor for lymphocyte activation and proliferation, in response to antigen stimulation via the CD3-T cell receptor complex and the pathway involved in this response is the NF-AT. […] A lymphocyte assay was designed to model this response and to determine the effect of test compound on IL-2 production by anti-CD3-stimulated T cells isolated from peripheral blood. This assay uses a sub-optimal dose of an anti-CD3 monoclonal antibody (OKT3, 25 ng/ml) immobilised to a 96-well plate to stimulate a T cell response. The level of IL-2 released into the cell culture supernatants was quantified using a standard sandwich ELISA. Similarly, other cytokines such as TNFα and IFN-γ can also be measured in the same assay.
(§2) Human peripheral blood mononuclear cells from healthy volunteers were isolated from whole blood by Ficoll-Hypaque density centrifugation and adherence to plastic. The non-adherent lymphocyte fraction was used to set up the lymphocyte assay and the adherent monocytes were then recovered by scraping and subsequently used in the monocyte assay.
(§3) Lymphocytes were then seeded to a 96-well plate pre-coated with anti-CD3 monoclonal antibody (OKT3) at 25 ng/ml and immediately, the test compounds (Peak 1, mixture 1 acid; Peak 1, mixture 2 acid; AH-13205 racemate; PGE2) in appropriate dilutions were added to corresponding wells according to the experimental design. The plate was incubated for 24 hours at 37° C. with 5% CO2 in air and supernatants were recovered for ELISA analysis at the end of incubation period. The levels of IFN-γ was assessed by using the ProteoPlex 16 well human cytokine array assay kit according to the manufacturer's instruction.

Assay [4] concerns interferon gamma release by lymphocytes. As to the kind of experiment: Lymphocyte assay: interferon gamma release. The class given is cell-based, human. The settings on record: two donors (FIG. 11).
Description: as §1, with “assay. […]” for “assay.”
Lymphocytes were then seeded to a 96-well plate pre-coated with anti-CD3 monoclonal antibody (OKT3) at 25 ng/ml and immediately, the test compounds (Peak 1, mixture 1 acid; Peak 1, mixture 2 acid; AH-13205 racemate; PGE2) in appropriate dilutions were added to corresponding wells according to the experimental design. […] The levels of IFN-γ was assessed by using the ProteoPlex 16 well human cytokine array assay kit according to the manufacturer's instruction.

Assay [5] deals with TNFα production by lymphocytes. As to the kind of experiment: Lymphocyte assay: TNFα production. As to conditions: Homo sapiens, Lymphocyte, inhibition of TNFα production by lymphocytes, mean of three donors. The class given is cell-based, human.
Description: as §1, §2, §3

Assay [6] relates to lymphocyte proliferation. The assay can be described thus: Lymphocyte proliferation driven by immobilised anti-CD3 antibody. The class given is cell-based, human. The settings on record: Homo sapiens, inhibition of lymphocyte proliferation, 72 h, mean of three donors.
Description: as §1, §2
For the measurement of lymphocyte proliferation driven by immobilised anti-CD3 monoclonal antibody, the assay was set up in the same way as for the measurement of IL-2 release, except that the cells were cultured for 72 hours in the presence or absence of test compounds. Four hours prior to the termination of the proliferation assay, a novel tetrazolium compound solution supplied by Promega in the format of Cell Proliferation Assay Kit was added to individual wells according to the manufacturer's instruction. The plate was then placed back in the incubator for the remaining 4 hours and the […] reaction was measured using a spectrophotometer at an absorbent wavelength of 490 nm (SpectraMax, Molecular Devices) according to the manufacturer's instruction.

The mark [7] stands for this setting: mean of four donors (FIG. 9, table 7), read-out: Mean EC50.
Setting [8] is: log scale, mean of four donors (FIG. 9, table 7), read-out: Mean Log (EC50) (converted).
[9] abbreviates: log scale, read-out: Mean Log (EC50) (converted).

T1 sequence (P35408 whole entry): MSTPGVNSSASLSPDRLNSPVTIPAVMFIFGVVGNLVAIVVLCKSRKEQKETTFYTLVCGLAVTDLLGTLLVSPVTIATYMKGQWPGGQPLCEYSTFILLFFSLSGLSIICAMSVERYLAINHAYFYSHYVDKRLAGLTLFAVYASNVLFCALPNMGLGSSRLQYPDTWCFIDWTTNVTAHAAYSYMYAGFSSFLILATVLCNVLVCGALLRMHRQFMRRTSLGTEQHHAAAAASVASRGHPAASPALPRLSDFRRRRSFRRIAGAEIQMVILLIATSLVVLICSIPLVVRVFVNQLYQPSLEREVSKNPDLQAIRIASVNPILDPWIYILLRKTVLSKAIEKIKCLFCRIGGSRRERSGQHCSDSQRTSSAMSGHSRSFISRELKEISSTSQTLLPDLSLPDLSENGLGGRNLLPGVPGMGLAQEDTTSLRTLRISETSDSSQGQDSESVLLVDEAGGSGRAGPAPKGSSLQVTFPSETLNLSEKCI

As for `CCCCCC(O)c1ccc(C2CCC(=O)C2CCCCCCC(=O)O)cc1` (racemic) [AH13205, (±)-trans-2-[4-(1-hydroxyhexyl)phenyl]-5-oxo-cyclopentaneheptanoic acid, reference compound], in assay [1], the Ki was 25.1 µM. For the same compound, in assay [2], the “maximum inhibitory effect: inhibition of EFS-induced contractions” value (“maximum inhibitory effect: inhibition” for short) is recorded as 49±5%. Besides, the “effect on electrically-induced (EFS-evoked) contractions” value (from here on “effect on electrically-induced”) is reported as “concentration-dependent inhibition” in assay [2] and “inhibit electrically-induced contractions” in assay [2] (listed as AH-13205). Also, the half-maximal effective concentration (EC50) in assay [2] was 5.01 µM; in assay [3] (setting [7]), 2820 nM; in assay [3] (setting [8]) it was 2820 nM.

Turning to `CCCCC[C@H](O)c1ccc([C@H]2CCC(=O)[C@@H]2CCCCCCC(=O)O)cc1` (single isomer, unassigned) [Peak 1, Mixture 1 acid], the Ki in assay [1] was 10 µM. Besides, the “maximum inhibitory effect: inhibition” value in assay [2] is reported as 56±5%. Also, the “effect on electrically-induced” value in assay [2] was “concentration-dependent inhibition”. Besides, the EC50 in assay [2] is 1.26 µM; in assay [3] (setting [7]), 986 nM; in assay [3] (mean of three to five donors (FIG. 10, table 8), read-out: Mean EC50), 1320 nM; in assay [3] (setting [8]), 986 nM; in assay [3] (log scale, mean of three to five donors (FIG. 10, table 8), read-out: Mean Log (EC50) (converted)), 1320 nM; in assay [5] (read-out: Mean EC50) it was 2330 nM. For the same compound, the results for the EC50 in assay [5] (setting [9]), in assay [6] (read-out: Mean EC50) and in assay [6] (setting [9]) were 2330 nM, 10 µM and 10 µM, respectively. In addition, the interferon gamma release result in assay [4] is “concentration-dependently inhibit interferon gamma release”.

With `CCCCC[C@@H](O)c1ccc([C@H]2CCC(=O)[C@@H]2CCCCCCC(=O)O)cc1` (single isomer, unassigned) [Peak 1, Mixture 2 acid], the Ki in assay [1] was 7.94 µM. For the same compound, in assay [2], the “maximum inhibitory effect: inhibition” value is listed as 57±2%, the “effect on electrically-induced” value is recorded as “concentration-dependent inhibition” and a half-maximal effect (EC50) was put at 5.01 µM.
